Measured values published in ChEMBL document CHEMBL4819153, “l-Hypaphorine and d-hypaphorine: Specific antiacetylcholinesterase activity in rat brain tissue” (Bioorg Med Chem Lett, 2021).

Experiments:
Acetylcholinesterase [1] = molecular target: T1, Acetylcholinesterase (Rattus norvegicus, UniProt P37136); assay: Inhibition of AChE in rat brain cortex; type: tissue-based
T1 sequence (P37136 whole entry): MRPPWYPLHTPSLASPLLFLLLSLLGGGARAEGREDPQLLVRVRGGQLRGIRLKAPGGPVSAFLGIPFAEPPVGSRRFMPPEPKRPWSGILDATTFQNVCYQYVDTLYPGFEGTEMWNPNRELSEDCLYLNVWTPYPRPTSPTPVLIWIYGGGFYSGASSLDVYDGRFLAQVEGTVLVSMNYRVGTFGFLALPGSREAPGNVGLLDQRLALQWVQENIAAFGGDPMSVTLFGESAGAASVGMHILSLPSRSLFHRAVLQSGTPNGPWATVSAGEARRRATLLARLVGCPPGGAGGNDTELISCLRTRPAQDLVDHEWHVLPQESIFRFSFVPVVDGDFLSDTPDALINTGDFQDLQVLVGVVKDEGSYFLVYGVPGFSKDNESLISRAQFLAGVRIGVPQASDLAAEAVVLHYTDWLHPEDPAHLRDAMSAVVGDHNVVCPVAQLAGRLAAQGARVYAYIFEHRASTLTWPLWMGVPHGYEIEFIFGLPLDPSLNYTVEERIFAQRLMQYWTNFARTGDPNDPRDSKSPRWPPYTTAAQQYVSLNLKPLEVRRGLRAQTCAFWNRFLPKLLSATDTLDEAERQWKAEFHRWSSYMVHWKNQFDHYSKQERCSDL

Acetylcholinesterase [2] = molecular target: T1, Acetylcholinesterase; assay: Inhibition of AChE in rat brain Cerebellum; type: tissue-based
Acetylcholinesterase [3] = molecular target: T1, Acetylcholinesterase; assay: Inhibition of AChE in rat brain Striatum; type: tissue-based
Acetylcholinesterase [4] = molecular target: T1, Acetylcholinesterase; assay: Inhibition of AChE in rat brain Hippocampus; type: tissue-based
[5] = Solubility in water; type: physicochemical; conditions: buffer
HaCaT [6] = assay: Cytotoxicity against human HaCaT cells assessed as reduction in cell viability upto 10000 uM incubated for 24 hrs relative to control; type: cell-based
HaCaT [7] = assay: Cytotoxicity against human HaCaT cells assessed as reduction in cell viability upto 10000 uM incubated for 48 hrs relative to control; type: cell-based
HaCaT [8] = assay: Cytotoxicity against human HaCaT cells assessed as reduction in cell viability incubated for 24 hrs relative to control; type: cell-based
HaCaT [9] = assay: Cytotoxicity against human HaCaT cells assessed as reduction in cell viability incubated for 48 hrs relative to control; type: cell-based
HaCaT [10] = assay: Cytotoxicity against human HaCaT cells assessed as reduction in cell viability at 10000 uM incubated for 24 hrs relative to control; type: cell-based
HaCaT [11] = assay: Cytotoxicity against human HaCaT cells assessed as reduction in cell viability at 5000 to 10000 uM incubated for 48 hrs relative to control; type: cell-based; conditions: dose 5000-10000 µM

| Compound | IC50 (Acetylcholinesterase [1]) [µM] | IC50 (Acetylcholinesterase [2]) [µM] | IC50 (Acetylcholinesterase [3]) [µM] | IC50 (Acetylcholinesterase [4]) [µM] | solubility [5] | Activity (HaCaT [6]) | Activity (HaCaT [7]) | Activity (HaCaT [8]) [%] | Activity (HaCaT [9]) [%] | Activity (HaCaT [10]) | Activity (HaCaT [11]) |
| --- | --- | --- | --- | --- | --- | --- | --- | --- | --- | --- | --- |
| C[N+](C)(C)[C@@H](Cc1c[nH]c2ccccc12)C(=O)O.[Cl-] | > 1000 | 18.6 | > 1000 | > 1000 | Soluble | Non-Toxic | Non-Toxic |  |  |  |  |
| C[N+](C)(C)[C@H](Cc1c[nH]c2ccccc12)C(=O)O.[Cl-] | 0.24 | 19.1 | 34.6 | 0.32 | Soluble | Non-Toxic | Non-Toxic |  |  |  |  |
| CN(C)/N=N/c1[nH]cnc1C(N)=O [DACARBAZINE] |  |  |  |  |  |  |  | 29.74 | 44.46 |  |  |
| CN(C)C(=O)Oc1cccc([N+](C)(C)C)c1.[Br-] [NEOSTIGMINE BROMIDE] | 0.65 | 37.2 | 3.17 | 0.07 |  |  |  |  |  | Toxic | Toxic |
